Columns and labels:
[1] = system: inflammation in lung tissue; test: COPD rat model: histopathological examination of lung tissue; format: in vivo, Sprague-Dawley rat; details: p.o.
Experimental: The exposure of cigarette smoke was performed by using a cigarette smoke generator (CH Technology Corp. USA). In a detail, 1 hour after the orally administration of test samples using by Head/nose-only exposure unit (TSE System, German) according to nose-only method, the cigarette smoke was exposed by inhalation for 3 days every hour. 8 puffs (volume 35 ml, duration 2 sec, interval 1 time/min) per one piece of standard cigarette was performed in the experiment. The tested groups were divided into five groups, i.e., (i) normal group with no treatment (normal control, NC), (ii) control group exposed with cigarette smoke (COPD), (iii) test sample group treated with Daxas (1 mg/kg, p.o) 1 hr prior to cigarette smoke exposure (DA), (iv) test sample group treated with ATC2 (30 mg/ml, p.o) 1 hr prior to cigarette smoke exposure (YPL), and (v) test sample group treated with Verproside (30 mg/ml, p.o) 1 hr prior to cigarette smoke exposure (Ver).
Delivered lung was promptly fixed with 10% formaldehyde solution (F0161, SAMCHUN, Korea), and cut into slices. The slices were washed with running water for 8 hrs, embedded with epoxy, cut into slices with microtome (CUT4050, MicroTec, Germany) and stained with Hematoxylin (MHS-16, Sigma-Aldrich, USA) & Eosin (HT110-1-32, Sigma-Aldrich, USA). […]

[2] = system: neutrophils and total immunocytes in BALF; test: COPD rat model (cigarette smoke): immunocytes in BALF; format: in vivo, Sprague-Dawley rat; details: ATC2 and Verproside 30 mg/kg
Experimental: 3 kinds of test samples, i.e., ATC2 (30 mg/kg), Verproside (30 mg/kg), Daxas (main ingredient: Roflumilast, 1 mg/kg) were dissolved in PBS and uses as test samples.
ATC2, Verproside, Daxas were orally administrated to the mice at the dose of 4 mg/kg, 1 hour before prior the intratracheal instillation (i.t.).
The exposure of cigarette smoke was performed by using a cigarette smoke generator (CH Technology Corp. USA). In a detail, 1 hour after the orally administration of test samples using by Head/nose-only exposure unit (TSE System, German) according to nose-only method, the cigarette smoke was exposed by inhalation for 3 days every hour. 8 puffs (volume 35 ml, duration 2 sec, interval 1 time/min) per one piece of standard cigarette was performed in the experiment. The tested groups were divided into five groups, i.e., (i) normal group with no treatment (normal control, NC), (ii) control group exposed with cigarette smoke (COPD), (iii) test sample group treated with Daxas (1 mg/kg, p.o) 1 hr prior to cigarette smoke exposure (DA), (iv) test sample group treated with ATC2 (30 mg/ml, p.o) 1 hr prior to cigarette smoke exposure (YPL), and (v) test sample group treated with Verproside (30 mg/ml, p.o) 1 hr prior to cigarette smoke exposure (Ver). After the end of experiment, the blood, BALF, and pneumonocyte of each rat were isolated and collected to test.
After finishing the experiment, rats were anesthetized with Zoletil50 (3VX9, Virbac, France, p.o) and the blood was delivered through caudal veins. In order to isolate BALF from lung, the bronchus of right lung was ligated with suture and then performed to tracheotomy. IV-use catheter (16 GA, 3S-Cath, Dukwoo, Korea) was put into the bronchus, and both of bronchus and catheter (16 GA, 3S-Cath, Dukwoo, Korea) were fixed with suture. […] The light lung ligated with suture was isolated, fixed with 10% neutral formalin solution, and the remaining lung tissue was reserved in refrigerator at −70° C. […]

[3] = system: inflammatory immunocytes and neutrophils in BALF; test: COPD mouse model (LPS+CS, i.t.): immunocytes, neutrophils and T lymphocytes in BALF; format: in vivo, BALB/c mice; details: 15 mg/kg, p.o.
Experimental: Specific pathogen-free male BALB/c mice (about 18-20 g), aged 8 weeks, which were routinely screened serologically for relevant respiratory pathogens, were purchased from ORIENT Co. (www.orient.co.kr, Seoul, Korea) and bred allowing to access freely to feed and water in breeding room controlling the temperature of 22±2° C., and humidity of 55±15% at the light-dark cycle for 12 hours and acclimated with the experimental environment for 1 week. […] 8 weeks aged BALB/c male mice was anaesthetized with 7% chloral hydrate and 100 μl of LPS+CS mixture {LPS (100 μg/ml)+standard cigarette extract (Cigarette smoking (CS), 4 mg/ml)=1:1} was inhaled to mice (i.t.) for three weeks once a week to prepare COPD animal model. Briefly, 100 μl of LPS+CS mixture was evenly inhaled to nose and mouth of fastened mice (i.t). […] After the end of experiment, the blood, BALF, and pneumonocyte of each mice were isolated and collected to test. After blood collection, 1 ml of FBS-free/DMEM medium contained in injector was injected to the trachea of autopsied mice, and the mice was fixed with string to circulate the blood three times and isolate the cell from BALF. […] The isolated PBMCs, BAL (Bronchoalveolar lavage), and pneumocyte were adjusted to 5×10^5 cells and performed to immunofluorescence staining at 4° C. PE-anti-CD3e (553064, BD Pharmingen, USA), FITC-anti-CD8 (553031, BD Pharmingen, USA), PE-anti-CD4 (553047, BD Pharmingen, USA), PE-anti-Gr-1 (553128, BD Pharmingen, USA), and FITC-anti-neutrophil (ab55453, Abcam, UK) were added thereto, respectively, and reacted for 30 mins in ice. After the reaction, the cells were washed with phosphate buffered physiological saline solution more than three times and the cell frequency (%) of CD3^+CD4^+& CD3^+CD8^+, and Gr-1^+Neutrophil^+ was determined using by Cell Quest program (643274, BD Biosciences, USA) of the flow cytometer (FACSCalibur, Becton, Dickinson, USA) and the absolute total number in each tissue was calculated by applying total cells.

[4] = target: ADBR2 (beta-2 adrenergic receptor) GPCR (Homo sapiens, UniProt P07550); test: ADBR2 GPCR-targeting cell-based assay (spot formation); details: 20 micromole; U2OS cells stably expressing ADBR2 GPCR
Chain of ADBR2 (beta-2 adrenergic receptor) GPCR (P07550 whole entry): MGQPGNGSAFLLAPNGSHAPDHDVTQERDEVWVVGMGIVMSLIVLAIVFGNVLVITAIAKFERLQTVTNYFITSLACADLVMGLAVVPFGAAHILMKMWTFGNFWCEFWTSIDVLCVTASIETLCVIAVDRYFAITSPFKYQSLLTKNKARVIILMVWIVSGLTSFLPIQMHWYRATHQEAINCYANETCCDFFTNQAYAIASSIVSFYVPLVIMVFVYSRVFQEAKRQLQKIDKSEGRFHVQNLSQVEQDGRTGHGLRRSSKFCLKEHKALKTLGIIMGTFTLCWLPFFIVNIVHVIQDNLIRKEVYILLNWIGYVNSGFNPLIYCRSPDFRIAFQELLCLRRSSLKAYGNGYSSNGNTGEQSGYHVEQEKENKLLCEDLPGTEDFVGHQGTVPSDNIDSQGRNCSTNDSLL

O=C(O[C@H]1[C@@H]2C=CO[C@@H](O[C@@H]3O[C@H](CO)[C@@H](O)[C@H](O)[C@H]3O)[C@@H]2[C@@]2(CO)O[C@@H]12)c1ccc(O)c(O)c1 [verproside, 6-O-(3,4-dihydroxybenzoyl) catalpol]
inhibitory effect on inflammation in lung tissue relative to Daxas group ([1]; ATC2 and Verproside 30 mg/kg versus Daxas 1 mg/kg): more potent | inflammation (infiltration of inflammatory cells) in lung tissue compared with COPD induced group ([1]; ATC2 and Verproside 30 mg/kg, Daxas 1 mg/kg): significant decreased | ratio of the number of neutrophils to that of immunocytes (counting 300 immunocytes) compared with COPD induced group ([2]; Daxas 1 mg/kg, p.o.): remarkably reduced ratio | level of neutrophils in BALF compared with COPD induced group ([2]; Daxas 1 mg/kg, p.o. 1 hr prior to cigarette smoke exposure): remarkably reduced level | level of total immunocytes in BALF compared with COPD induced group ([2]; p.o. 1 hr prior to cigarette smoke exposure): remarkably reduced level | number of total immunocyte in BALF compared with control group [3]: sharply reduced | reduction of number of neutrophils (Diff-Quik stained, cytospin) in BALF compared with control group [3]: more than 94.2% | reduction of total absolute cell number of CD4+ T cell in BALF compared with control group [3]: more than 32.9% | reduction of total absolute cell number of CD8+ T cell in BALF compared with control group [3]: not significantly different | reduction of total absolute cell number of Neutrophils+Gr-1+ cell in BALF compared with control group [3]: more than 93.9% | spot formation [4]: did not show spot formation
